Measured values taken from PMC11714206, “Massively Parallel Screening of Toll/Interleukin‐1 Receptor (TIR)‐Derived Peptides Reveals Multiple Toll‐Like Receptors (TLRs)‐Targeting Immunomodulatory Peptides” (Advanced Science, 2024).

Target: T1, MyD88^TIR (Homo sapiens, UniProt Q99836)
T1 construct: MyD88 (residues 148–296); 6xHis; made in house; host or cells: E. coli BL21 (DE3)
Assay: T‐Surf phage library (P8 and P3) selection against MyD88^TIR, four rounds, NGS read counts
Format: binding
Details: for P3_MyD88 Rank (after) / P3_MyD88 Rank (before): P3 library; for P8_MyD88 Rank (after) / P8_MyD88 Rank (before): P8 library; for Population: 4th round of selection against MyD88 TIR, share of NGS reads
Outline: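 Coat TIR domain 5 µg mL^−1 overnight; block 0.2% BSA/PBS 1 h, 4 °C; add phage library 1 h, RT; wash ×4 PBS/0.5% Tween‐20; elute 100 mM HCl, neutralize Tris; amplify in TG1, PEG‐precipitate. Repeat to round 4; barcode PCR, NovaSeq, count reads.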

[1] = 4R selection against MyD88, rank after grouping
[2] = 4R selection against MyD88, rank before grouping
[3] = selection against MyD88, rank after grouping
[4] = selection against MyD88, rank before grouping
[5] = selection against MyD88 TIR, rank by count after grouping
[6] = selection against MyD88 TIR, rank by count before grouping
[7] = P3_MyD88 pool: P3 T-Surf phage library
[8] = P8_MyD88: rank by count after grouping
[9] = P8_MyD88: rank by count before grouping
[10] = P8_MyD88 pool: P8 T-Surf phage library
[11] = P8_MyD88: rank by NGS read count after grouping
[12] = P8_MyD88: rank by NGS read count before grouping
[13] = selection against MyD88, rank by count after grouping
[14] = selection against MyD88, rank by count before grouping
[15] = P3_MyD88: rank by count after grouping
[16] = P3_MyD88: rank by count before grouping

T1 sequence (Q99836 148-296): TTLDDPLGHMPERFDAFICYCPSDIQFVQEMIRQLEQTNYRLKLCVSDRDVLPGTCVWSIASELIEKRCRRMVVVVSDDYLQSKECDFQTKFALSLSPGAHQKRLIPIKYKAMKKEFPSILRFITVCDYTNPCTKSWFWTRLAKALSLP

## NELVHVWRSKANRLVG
[1]
  P3_MyD88 Rank (after): 646
[2]
  P3_MyD88 Rank (before): 3408

## DPRDLAWFYEVLLSRF
[1]
  P8_MyD88 Rank (after): 657
[2]
  P8_MyD88 Rank (before): 2618

## KNLFNLLGSKDIRALM
[3]
  P3_MyD88 Rank (after): 542
[4]
  P3_MyD88 Rank (before): 3781

## SIATLLYDQLSWLDIH
[5]
  P8_MyD88 Rank (after): 201
[6]
  P8_MyD88 Rank (before): 293

## DPQDLDLFYERLVSMF
[1]
  P8_MyD88 Rank (after): 673
[2]
  P8_MyD88 Rank (before): 2739

## WKEALTYVSLLVGFPF
[5]
  P8_MyD88 Rank (after): 224
[6]
  P8_MyD88 Rank (before): 380

## SSFREGRWRLLELSKK
[7]
  Population: 0.0032%

## SNFREGLWRLLELSKK
[7]
  Population: 0.00408%

## HYTDSYFALHELALLL
[8]
  Rank (after): 128
[9]
  Rank (before): 138
[10]
  Population: 0.0119%

## WFLTAFRMAMDQVADT
[8]
  Rank (after): 95
[9]
  Rank (before): 100
[10]
  Population: 0.025%

## ELDFSHFWLFDAGGDAAI
[11]
  Rank (after): 956
[12]
  Rank (before): 3183

## NQWRNELTPAANLSGW
[13]
  P3_MyD88 Rank (after): 698
[14]
  P3_MyD88 Rank (before): 3527

## DWVWDYLLPNGRPSG
[11]
  Rank (after): 987
[12]
  Rank (before): 2420

## KLDSARMRKVQRLRET
[3]
  P3_MyD88 Rank (after): 576
[4]
  P3_MyD88 Rank (before): 3706

## GLSWGPYEWCRGLYDA
[13]
  P8_MyD88 Rank (after): 770
[14]
  P8_MyD88 Rank (before): 2294

## YLRADDSWFWEKLLQIA
[3]
  P8_MyD88 Rank (after): 553
[4]
  P8_MyD88 Rank (before): 2056

## WALQELLEILKANREL
[8]
  Rank (after): 149
[9]
  Rank (before): 168
[10]
  Population: 0.00848%

## SSFREDLCRLLALSNK
[5]
  P3_MyD88 Rank (after): 286
[6]
  P3_MyD88 Rank (before): 3226

## YIIWFEDIQLIHLLCD
[3]
  P8_MyD88 Rank (after): 564
[4]
  P8_MyD88 Rank (before): 2108

## AHDELWVLRYLLPTLE
[5]
  P8_MyD88 Rank (after): 205
[6]
  P8_MyD88 Rank (before): 304

## YASYDDFWDRLIRMIE
[5]
  P8_MyD88 Rank (after): 248
[6]
  P8_MyD88 Rank (before): 439

## SSVRECLWRLLELSKK
[3]
  P3_MyD88 Rank (after): 516
[4]
  P3_MyD88 Rank (before): 3268

## YAFTGHLHRYIEQRSG
[1]
  P3_MyD88 Rank (after): 610
[2]
  P3_MyD88 Rank (before): 1533

## KERPFGAQRAEKWRAALT
[3]
  P3_MyD88 Rank (after): 567
[4]
  P3_MyD88 Rank (before): 3671

## NELVHVWCCKANSQAG
[15]
  Rank (after): 420
[16]
  Rank (before): 3407

## VANILGYHCIDWEHFVGIED
[13]
  P8_MyD88 Rank (after): 722
[14]
  P8_MyD88 Rank (before): 2169

## YASSSWYLDELVRSLW
[11]
  Rank (after): 897
[12]
  Rank (before): 1860

## WRWMNCCRFCMRVNC
[13]
  P8_MyD88 Rank (after): 729
[14]
  P8_MyD88 Rank (before): 1649

## YAFTGHLHRYLVLRGA
[1]
  P3_MyD88 Rank (after): 630
[2]
  P3_MyD88 Rank (before): 1502

## QYSDTLLEHTSKFPA
[3]
  P3_MyD88 Rank (after): 492
[4]
  P3_MyD88 Rank (before): 2837

## YELDFSHFWLFVGQAP
[11]
  Rank (after): 1008
[12]
  Rank (before): 1929

## AVDKETDKIQTPLEM
[15]
  Rank (after): 115
[16]
  Rank (before): 601

## DPQDLDWIYERLVSRF
[8]
  Rank (after): 436
[9]
  Rank (before): 2831

## SSFREGLWRLLKLSKK
[7]
  Population: 0.00349%

## YASSIWALNELIRILE
[8]
  Rank (after): 138
[9]
  Rank (before): 149
[10]
  Population: 0.0108%

## DPQDLEWFYERLVSLL
[10]
  Population: 0.0224%

## DWVWDYLLLSVFQTIFARRTE
[8]
  Rank (after): 425
[9]
  Rank (before): 1033

## DPQLLVCFYERVVRMF
[11]
  Rank (after): 1010
[12]
  Rank (before): 3025

## WALDLQWFYERLVSLI
[8]
  Rank (after): 480
[9]
  Rank (before): 1518

## EWIREQLRPALKERL
[15]
  Rank (after): 112
[16]
  Rank (before): 995

## YYDSRWALDELLKIL
[3]
  P8_MyD88 Rank (after): 484
[4]
  P8_MyD88 Rank (before): 1678

## LGYRWGDWEYFVGIEE
[11]
  Rank (after): 1017
[12]
  Rank (before): 3222

## DFSHFWLFEARGDA
[8]
  Rank (after): 387
[9]
  Rank (before): 2381

## LVALEISKKMTIFATI
[5]
  P3_MyD88 Rank (after): 228
[6]
  P3_MyD88 Rank (before): 2269

## WFWQSLRNTIIMDNQA
[1]
  P8_MyD88 Rank (after): 605
[2]
  P8_MyD88 Rank (before): 1355

## YALTGHKHRYMVQRGV
[5]
  P3_MyD88 Rank (after): 193
[6]
  P3_MyD88 Rank (before): 1554

## SMMPSSDFWKELALAL
[5]
  P8_MyD88 Rank (after): 217
[6]
  P8_MyD88 Rank (before): 369

## SWAVDELLKILQAWDE
[8]
  Rank (after): 137
[9]
  Rank (before): 151
[10]
  Population: 0.0108%

## GEVPRYIFTGHLHATQ
[1]
  P3_MyD88 Rank (after): 633
[2]
  P3_MyD88 Rank (before): 1826

## WALNELLKILHARELF
[8]
  Rank (after): 414
[9]
  Rank (before): 1546

## YLLLSVFQTICALRTE
[11]
  Rank (after): 963
[12]
  Rank (before): 1999

## LVSHEISKKVKIFATI
[1]
  P3_MyD88 Rank (after): 638
[2]
  P3_MyD88 Rank (before): 2265

## KWLWEKRTCGHSRNTA
[13]
  P3_MyD88 Rank (after): 676
[14]
  P3_MyD88 Rank (before): 3585

## NHHLDPPRGKANKPGILG
[13]
  P3_MyD88 Rank (after): 702
[14]
  P3_MyD88 Rank (before): 3461

## LKVESWRDALTAAANLSGW
[3]
  P3_MyD88 Rank (after): 489
[4]
  P3_MyD88 Rank (before): 2475

## SSRWALDELVQILHARELF
[11]
  Rank (after): 887
[12]
  Rank (before): 3809

## LEANDSLFWDRLYY
[8]
  Rank (after): 403
[9]
  Rank (before): 1189

## LGYHCMDWEYFVGIED
[8]
  Rank (after): 390
[9]
  Rank (before): 3228

## YAFTGHPPRYLVQRGV
[15]
  Rank (after): 433
[16]
  Rank (before): 1536

## SELSVVDDGSVSPLGM
[15]
  Rank (after): 472
[16]
  Rank (before): 3068

## DPQALDWFYERLVRLF
[5]
  P8_MyD88 Rank (after): 279
[6]
  P8_MyD88 Rank (before): 2689

## SSFREGLLRLLELSKK
[7]
  Population: 0.0032%

## YYLDHSHPRKQNGEFG
[3]
  P3_MyD88 Rank (after): 556
[4]
  P3_MyD88 Rank (before): 1436

## DPQDLDWFYARLVRLF
[5]
  P8_MyD88 Rank (after): 270
[6]
  P8_MyD88 Rank (before): 2751

## LGYHWIDWSILWALK
[5]
  P8_MyD88 Rank (after): 231
[6]
  P8_MyD88 Rank (before): 409

## DHHLDLPRGKAIKLEILG
[7]
  Population: 0.00437%

## SENYATSAWALEELVL
[5]
  P3_MyD88 Rank (after): 214
[6]
  P3_MyD88 Rank (before): 2961

## LGYHWVDWEDLLSIEE
[13]
  P8_MyD88 Rank (after): 730
[14]
  P8_MyD88 Rank (before): 3235

## VGKLKKGESFAPELLR
[5]
  P3_MyD88 Rank (after): 229
[6]
  P3_MyD88 Rank (before): 1765

## DPQDLDWFYECPVSMF
[3]
  P8_MyD88 Rank (after): 535
[4]
  P8_MyD88 Rank (before): 2754

## SDLRVVDDGSVSPLAM
[13]
  P3_MyD88 Rank (after): 711
[14]
  P3_MyD88 Rank (before): 3005

## SSLLEGRWALLELSKK
[15]
  Rank (after): 459
[16]
  Rank (before): 3253

## DPQVRVWFYERLVSLF
[13]
  P8_MyD88 Rank (after): 755
[14]
  P8_MyD88 Rank (before): 2659

## WFWDKQKYTLPHRYEP
[1]
  P3_MyD88 Rank (after): 583
[2]
  P3_MyD88 Rank (before): 1418

## SELREVVGGAVSQLVM
[3]
  P3_MyD88 Rank (after): 575
[4]
  P3_MyD88 Rank (before): 3061

## YLRADDIWVWEKLLYA
[1]
  P8_MyD88 Rank (after): 646
[2]
  P8_MyD88 Rank (before): 2040

## SSFREGLWSLLELSKN
[15]
  Rank (after): 183
[16]
  Rank (before): 3200
